Experimental data as given in publication PMC12459020, “Chemical Probes that Target a Dissociative LuxR-Type Quorum Sensing Receptor in Gram-Negative Bacteria” (ACS Chemical Biology, 2025).
“Also recorded” adds a separate entry of the source. Where two headings read alike, the source gives them in different places.

Assays:
LuxR = conditions: cited from earlier work; for LuxR antagonism: 5 µM compound against 5 µM OHHL, negative values indicate potential activators, ref 6 (SI; Palmer et al., 2011); for LuxR [%] (agonism, activation): compounds at 200 μM, luminescence in V. fischeri ES114 (ΔluxI), ref Palmer et al., 2011 (main ref 44, SI ref 6)
ExpR2 = conditions: cited from earlier work; for ExpR2 antagonism (percent inhibition): 5 µM compound against 5 µM OHHL, negative values indicate potential activators; for ExpR2 antagonism (percent inhibition) / IC50: ref 6 (SI; Palmer et al., 2011); for ExpR2 [%] (agonism, percent activation): compounds at 200 μM, cellulase activity in P. versatile AC5099, ref Palmer et al., 2011 (main ref 44, SI ref 6); for IC50: previously reported phenotypic reporter data
EsaR [1] = molecular target: T1, EsaR (Pantoea stewartii subsp. stewartii, UniProt P54293); test: cell-based; conditions: for activation at 100 µM / inhibition at 100 µM: 3.5 h; for activation at 100 µM: read-out: EsaR-activated (pesaS) [%] agonism; for inhibition at 100 µM: read-out: EsaR-activated (pesaS) antagonism; for EsaR agonism, in words: E. coli EsaR reporters, primary screen at 100 μM
T1 construct: expressed in transfected cells; host or cells: E. coli JLD271 (K12 ΔsdiA), arabinose-induced pJN105-esaR
T1 sequence (P54293 whole entry): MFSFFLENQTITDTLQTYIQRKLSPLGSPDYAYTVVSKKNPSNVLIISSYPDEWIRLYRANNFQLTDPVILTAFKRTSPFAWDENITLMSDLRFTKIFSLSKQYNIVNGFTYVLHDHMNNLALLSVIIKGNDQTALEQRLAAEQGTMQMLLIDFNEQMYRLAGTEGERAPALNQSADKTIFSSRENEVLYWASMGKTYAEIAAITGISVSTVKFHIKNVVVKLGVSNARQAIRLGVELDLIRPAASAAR
Description: (§1) EsaR transcriptional activation and repression were examined using E. coli and P. stewartii reporters (strains and plasmids listed in Table S1; see Methods section for assay details). […] We constructed reporters in E. coli based on previously reported EsaR reporters (Table S1). Each strain contained an EsaR expression plasmid (pJN105-esaR) and a reporter plasmid with either an EsaR-activated promoter (pesaS) or an EsaR-repressed promoter (pesaR) upstream of luxABCDE or GFP.
(§2) Gibson assembly was used to create all constructs. Plasmid pJN105-esaR was created by amplifying esaR from pAC-esaR and inserting it into pJN105. pesaSlux was created by inserting pesaS, amplified from pPesaR-AC:gfp, into the pCS-pesaRlux backbone. The pesaR promoter was amplified from pCS-pesaRlux and inserted into the pPesaR-AC:gfp backbone to create pesaR:GFP. P. stewartii reporter strains were created by transforming pesaR:GFP or pPesaR-AC:gfp into ESN51 by conjugation using E. coli S17 λpir as the donor strain. See SI for details of E. coli ExpR2 reporter construction.
(§3) Overnight cultures were diluted 1:10 in LB medium with appropriate antibiotics and grown at 37 °C (200 rpm) to an OD600 of 0.22–0.27 before induction with 4 mg mL^–1 arabinose. OD600 was measured by placing 200 μL of culture into a 96-well plate and reading optical density using the BioTek Synergy 2 plate reader. Assays were performed in technical triplicate in clear-bottom, white and clear-bottom, black 96-well microtiter plates (Corning Costar 3903 and 3904) for luminescence and fluorescence reporters, respectively. Compounds were dissolved in DMSO, and 2 μL of this stock, or DMSO as a negative control, was added to each well prior to adding 198 μL of induced culture. Plates were incubated at 37 °C (200 rpm) for 3.5 h. Each well was mixed by pipetting before reading OD600 and either luminescence or fluorescence. Single-point screens were performed with one or two biological replicates, and all dose–response curves were performed in biological triplicate. EC50 values were calculated based on a nonlinear regression of log(concentration) vs response (three parameters) using GraphPad Prism 9 software.

EsaR [2] = molecular target: T1, EsaR; test: cell-based; conditions: for activation at 100 µM / inhibition at 100 µM: 3.5 h; for activation at 100 µM: read-out: EsaR-repressed (pesaR) [%] agonism; for inhibition at 100 µM: read-out: EsaR-repressed (pesaR) antagonism
Description: as §1, §2, §3

ExpR1 = conditions: cited from earlier work; for ExpR1 antagonism: 5 µM compound against 5 µM OHHL, negative values indicate potential activators, ref 6 (SI; Palmer et al., 2011); for ExpR1 [%] (agonism, activation): compounds at 200 μM, cellulase activity in P. versatile AC5117, ref Palmer et al., 2011 (main ref 44, SI ref 6)

SMILES | LuxR antagonism (LuxR) [%] | LuxR [%] (agonism, activation) (LuxR) | ExpR2 antagonism (percent inhibition) (ExpR2) [%] | ExpR2 [%] (agonism, percent activation) (ExpR2) | activation at 100 µM (EsaR [1]) [%] | inhibition at 100 µM (EsaR [1]) [%] | EsaR agonism, in words (EsaR [1]) | fold less potent than OHHL in EsaR (EC50 ratio) (EsaR [1]; E. coli EsaR-activated reporter EC50 values) [fold] | activation at 100 µM (EsaR [2]) [%] | inhibition at 100 µM (EsaR [2]) [%] | ExpR1 antagonism (ExpR1) [%] | ExpR1 [%] (agonism, activation) (ExpR1) | IC50 (ExpR2) [nM] | EC50 (EsaR [1]) [nM] | EC50 (EsaR [2]) [nM]
O=C(Cc1cccc(I)c1)N[C@H]1CCOC1=O [C11, 3-iodo PHL] | 78 | 28 | 63 | 61 | 65 | -57 | agonized EsaR | ~300 | 44 | -56 | 83 | 32 |  |  | 
O=C(Cc1ccccc1I)N[C@H]1CCOC1=O [C12] | 63 | 7 | 55 | 24 | -9 | -12 |  |  | 9 | 4 | 65 | 11 |  |  | 
O=C(Cc1ccc([N+](=O)[O-])cc1)N[C@H]1CCOC1=O [C13] | 47 | 24 | 32 | 24 | 14 | -29 |  |  | 14 | 12 | 44 | 15 |  |  | 
O=C(Cc1ccccc1[N+](=O)[O-])N[C@H]1CCOC1=O [C15] | 23 | 4 | 3 | 19 | -10 | -6 |  |  | -1 | 0 | 27 | 9 |  |  | 
CCCCCCCCCC(=O)N[C@H]1CCOC1=O [DHL, reference compound] | 96 | 12 | 76 | 44 | 17 | -11 |  |  | 4 | -59 | 91 | 6 | 900 |  | 
Cc1cccc(CC(=O)N[C@H]2CCOC2=O)c1 [E1] | 78 | 5 | 62 | 13 | 25 | 1 |  |  | 12 | 2 | 74 | 6 |  |  | 
COc1cccc(CC(=O)N[C@H]2CCOC2=O)c1 [E2] | 71 | 7 | 59 | 24 | 4 | 0 |  |  | 3 | -42 | 68 | 4 |  |  | 
CSc1cccc(CC(=O)N[C@H]2CCOC2=O)c1 [E7, 3-SCH3 PHL] | 88 | 4 | 71 | 13 | 23 | -26 | nearly inactive |  | 11 | -3 | 79 | 0 |  |  | 
O=C(Cc1cc(C(F)(F)F)cc(C(F)(F)F)c1)N[C@H]1CCOC1=O [E9] | 0 | 107 | 16 | 15 | 60 | -67 |  |  | 41 | -17 | 4 | 9 |  |  | 
O=C(Cc1ccc2ccccc2c1)N[C@H]1CCOC1=O [E12] | 83 | 2 | 5 | 56 | 0 | -10 |  |  | 7 | 37 | 58 | 8 |  |  | 
O=C(Cc1cccc2ccccc12)N[C@H]1CCOC1=O [E13] | 84 | 3 | -6 | 95 | -11 | -2 |  |  | 0.5 | -11 | 69 | 7 |  |  | 
CCCCCC(=O)N[C@H]1CCOC1=O [HHL, hexanoyl HL, reference compound] | 69 | 2 | 12 | 94 | 100 | -96 | strongly activated |  | 98 | -126 | 67 | 5 |  |  | 
O=C(Cc1ccc(Br)cc1)N[C@H]1CCOC1=O [K3] | 79 | 3 | 62 | 25 | 9 | -24 |  |  | 18 | -76 | 71 | 4 | 850 |  | 
CCCCCCCC(=O)CC(=O)N[C@H]1CCOC1=O [ODHL, reference compound] | 47 | 2 | 33 | 48 | 65 | -69 |  |  | 37 | -94 | 42 | 6 |  | ≥ 65000 | ≥ 101000
CCCCCCCC(=O)N[C@H]1CCOC1=O [OHL, octanoyl HL, reference compound] | 86 | 25 | 38 | 79 | 98 | -95 | strongly activated; also recorded: agonized EsaR |  | 91 | -40 | 78 | 19 |  |  | 
CCCCCC(=O)CC(=O)N[C@H]1CCOC1=O [OOHL, 3-(oxo)-octanoyl HL, reference compound] | 63 | 24 | 26 | 78 | 100 | -89 | strongly activated |  | 91 | -138 | 65 | 29 |  |  | 
CCCCCCCCCC(=O)CC(=O)N[C@H]1CCOC1=O [OdDHL, 3-(oxo)-dodecanoyl HL, reference compound] | 86 | 2 | 73 | 17 | 34 | -45 | agonized EsaR |  | 26 | -10 | 85 | 2 | 750 |  | 
